Laboratory results from patent publication US8030336B2, “Nicotinamide-based kinase inhibitors” (YM Biosciences Australia Pty Ltd, priority 2002, dated 2011).

Legend:
Assay type in all cases: biochemical
human JAK2 = molecular target: T1, human JAK2 (Homo sapiens, UniProt O60674); assay: JAK2 kinase assay (ELISA or Alphascreen); details: read-out: Jak2 inhibition of enzyme activity
T1 construct: The kinase domain of human JAK2 was amplified from U937mRNA; His tag (from the pFastBac HTc vector) (N); made in house; host or cells: baculovirus; Sf9 for virus, High Five insect cells for production
T1 sequence (O60674 849-1124 limits assumed): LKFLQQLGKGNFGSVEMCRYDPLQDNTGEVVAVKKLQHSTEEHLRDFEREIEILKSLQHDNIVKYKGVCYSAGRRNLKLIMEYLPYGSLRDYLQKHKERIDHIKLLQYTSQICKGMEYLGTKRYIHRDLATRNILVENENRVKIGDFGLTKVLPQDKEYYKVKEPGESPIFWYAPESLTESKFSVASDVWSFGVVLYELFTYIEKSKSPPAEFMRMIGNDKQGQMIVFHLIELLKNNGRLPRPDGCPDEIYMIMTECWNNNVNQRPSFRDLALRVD
How it was run: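 His-tagged human JAK2 kinase domain from baculovirus-infected insect cells, ~1.5 μg per assay, in 50 mM HEPES pH 7.5, 10 mM MgCl2, 150 mM NaCl, with 10 μM–1 mM ATP and 5 μM biotinylated peptide substrate. Phosphotyrosine detected by PY20 ELISA or AlphaScreen.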

human JAK3 = molecular target: T2, human JAK3 (Homo sapiens, UniProt P52333); assay: JAK3 kinase assay (ELISA or Alphascreen); details: read-out: Jak3 inhibition of enzyme activity
T2 construct: The kinase domain of human JAK3 was amplified from U937mRNA; His tag (from the pFastBac HTb vector) (N); made in house; host or cells: baculovirus; Sf9 for virus, High Five insect cells for production
T2 sequence (P52333 822-1111 limits assumed): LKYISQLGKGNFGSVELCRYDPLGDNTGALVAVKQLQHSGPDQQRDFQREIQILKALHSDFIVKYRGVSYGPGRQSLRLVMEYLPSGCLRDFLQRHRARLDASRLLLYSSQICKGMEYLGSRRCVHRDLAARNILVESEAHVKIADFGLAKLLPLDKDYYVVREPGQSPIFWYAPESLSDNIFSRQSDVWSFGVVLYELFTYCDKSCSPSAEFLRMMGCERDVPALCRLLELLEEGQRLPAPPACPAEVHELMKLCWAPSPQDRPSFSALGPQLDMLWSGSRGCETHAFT
How it was run: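 His-tagged human JAK3 kinase domain from High Five cells, ~1.5 μg per assay, in 50 mM HEPES pH 7.5, 10 mM MgCl2, 150 mM NaCl, 10 μM-1 mM ATP, 5 μM biotinylated peptide substrate. Phosphotyrosine by PY20 ELISA or Alphascreen.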

abl = molecular target: T3, abl (Homo sapiens, UniProt P00519); assay: abl kinase assay (ELISA or Alphascreen); details: read-out: abl inhibition of enzyme activity
T3 sequence (P00519 242-493 limits assumed): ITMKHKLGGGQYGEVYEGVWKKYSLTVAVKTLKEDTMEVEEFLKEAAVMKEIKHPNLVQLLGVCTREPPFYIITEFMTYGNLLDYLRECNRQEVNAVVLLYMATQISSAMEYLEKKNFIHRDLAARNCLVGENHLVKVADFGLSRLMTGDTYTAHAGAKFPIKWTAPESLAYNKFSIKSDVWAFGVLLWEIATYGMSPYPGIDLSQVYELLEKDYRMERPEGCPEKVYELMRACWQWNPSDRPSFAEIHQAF
How it was run: (§1)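 Affinity-purified PTK domain (~1.5 μg) phosphorylated biotinylated peptide (5 μM final) in 50 mM HEPES pH 7.5, 10 mM MgCl2, 150 mM NaCl, 10 μM-1 mM ATP. Phosphotyrosine read by PY20 ELISA or Alphascreen.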

fes = fes (Homo sapiens, UniProt P07332); assay: fes kinase assay (ELISA or Alphascreen); details: read-out: fes inhibition of enzyme activity
Chain of fes (P07332 561-822 limits assumed, species assumed): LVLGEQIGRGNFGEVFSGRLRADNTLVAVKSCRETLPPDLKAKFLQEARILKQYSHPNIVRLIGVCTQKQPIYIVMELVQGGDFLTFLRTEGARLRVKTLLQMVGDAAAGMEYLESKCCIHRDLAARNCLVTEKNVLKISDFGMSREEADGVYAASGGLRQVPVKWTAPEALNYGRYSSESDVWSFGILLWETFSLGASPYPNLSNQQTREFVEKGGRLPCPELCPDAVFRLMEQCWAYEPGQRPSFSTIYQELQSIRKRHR
How it was run: as §1

fms = molecular target: T4, fms (Homo sapiens, UniProt P07333); assay: fms kinase assay (ELISA or Alphascreen); details: read-out: fms inhibition of enzyme activity
T4 sequence (P07333 582-910 limits assumed): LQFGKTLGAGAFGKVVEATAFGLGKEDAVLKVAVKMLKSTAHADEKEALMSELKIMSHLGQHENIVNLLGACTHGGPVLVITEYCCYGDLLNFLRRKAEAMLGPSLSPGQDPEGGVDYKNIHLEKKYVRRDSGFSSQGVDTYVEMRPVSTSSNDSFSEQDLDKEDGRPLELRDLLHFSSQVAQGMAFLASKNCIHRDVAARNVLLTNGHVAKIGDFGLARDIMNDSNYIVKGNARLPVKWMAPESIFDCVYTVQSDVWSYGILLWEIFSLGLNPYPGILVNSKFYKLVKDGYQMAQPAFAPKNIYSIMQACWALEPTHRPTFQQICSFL
How it was run: as §1

hck = hck (Homo sapiens, UniProt P08631); assay: hck kinase assay (ELISA or Alphascreen); details: read-out: hck inhibition of enzyme activity
Chain of hck (P08631 262-515 limits assumed, species assumed): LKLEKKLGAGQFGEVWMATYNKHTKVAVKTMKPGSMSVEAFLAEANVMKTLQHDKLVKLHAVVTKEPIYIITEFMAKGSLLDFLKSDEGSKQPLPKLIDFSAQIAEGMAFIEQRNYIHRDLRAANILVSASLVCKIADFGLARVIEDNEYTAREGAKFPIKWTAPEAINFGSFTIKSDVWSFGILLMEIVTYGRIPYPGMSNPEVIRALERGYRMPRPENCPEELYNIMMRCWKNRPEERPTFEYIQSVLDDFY
How it was run: as §1

Zap70 = molecular target: T5, Zap70 (Homo sapiens, UniProt P43403); assay: Zap70 kinase assay (ELISA or Alphascreen); details: read-out: Zap70 inhibition of enzyme activity
T5 sequence (P43403 338-600 limits assumed): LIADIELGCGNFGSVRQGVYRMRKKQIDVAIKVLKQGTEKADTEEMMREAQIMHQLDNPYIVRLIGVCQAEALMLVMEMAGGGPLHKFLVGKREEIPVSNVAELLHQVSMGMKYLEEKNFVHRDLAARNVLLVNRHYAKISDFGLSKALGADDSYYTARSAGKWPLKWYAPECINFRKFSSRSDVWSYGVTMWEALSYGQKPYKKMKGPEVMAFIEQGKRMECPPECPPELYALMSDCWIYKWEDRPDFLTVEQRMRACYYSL
How it was run: as §1

SMILES	inhibition at 10 µM (human JAK2) [%]	inhibition at 10 µM (human JAK3) [%]	inhibition at 10 µM (abl) [%]	inhibition at 10 µM (fes) [%]	inhibition at 10 µM (fms) [%]	inhibition at 10 µM (hck) [%]	inhibition at 10 µM (Zap70) [%]
CC(CCc1ccccc1)NC(=O)c1cncc(-c2cccs2)c1 (stereo not shown)	< 50	< 50	< 50	≥ 50	< 50	< 50	< 50
COc1cc(-c2cncc(C(=O)Nc3ccccc3C)c2)cc(OC)c1OC	< 50	< 50	≥ 50	< 50	≥ 50	≥ 50	< 50
O=C(Nc1ccccc1)c1cncc(-c2cccnc2)c1	< 50	< 50	< 50	< 50	< 50	< 50	≥ 50
COc1cc(CNC(=O)c2cncc(-c3cc(OC)c(OC)c(OC)c3Cl)c2)cc(OC)c1	≥ 50	< 50	< 50	< 50	< 50	< 50	≥ 50
O=C(Nc1ccccc1)c1cncc(-c2cccs2)c1	< 50	< 50	< 50	≥ 50	< 50	< 50	< 50
CN(C)CCNC(=O)c1cncc(-c2ccc(F)cc2)c1	< 50	< 50	< 50	< 50	< 50	< 50	< 50
CC(C)C(CO)NC(=O)c1cncc(-c2ccc3c(c2)OCO3)c1 (stereo not shown)		< 50	< 50	< 50	< 50	< 50	< 50
COc1cc(-c2cncc(C(=O)OC(C)(C)C)c2)ccc1O	< 50	< 50	< 50	< 50	≥ 50	< 50	< 50
COc1cc(-c2cncc(C(=O)Nc3ccccc3C)c2)c(Cl)c(OC)c1OC	< 50	< 50	< 50	< 50	≥ 50	≥ 50	< 50
CC(NC(=O)c1cncc(-c2cccs2)c1)c1ccc(F)cc1 (stereo not shown)	< 50	< 50	< 50	≥ 50	< 50	< 50	< 50
COc1cc(-c2cncc(C(=O)Nc3cc(F)ccc3C)c2)c(Cl)c(OC)c1OC	< 50	< 50	< 50	< 50	≥ 50	≥ 50	< 50
Cc1ccc(F)cc1NC(=O)c1cncc(-c2ccc3c(c2)OCO3)c1	< 50	< 50	< 50	< 50	< 50	< 50	< 50
CC(C)C(CO)NC(=O)c1cncc(-c2cccnc2)c1 (stereo not shown)		< 50	< 50	< 50	< 50	< 50	< 50
CC(NC(=O)c1cncc(-c2cccnc2)c1)c1ccc(F)cc1 (stereo not shown)		< 50	< 50	< 50	< 50	< 50	< 50

Now from value to compound:

inhibition at 10 µM (human JAK2) [%]	inhibition at 10 µM (human JAK3) [%]	inhibition at 10 µM (abl) [%]	inhibition at 10 µM (fes) [%]	inhibition at 10 µM (fms) [%]	inhibition at 10 µM (hck) [%]	inhibition at 10 µM (Zap70) [%]	SMILES
< 50	< 50	< 50	< 50	< 50	≥ 50	≥ 50	COc1cccc(-c2cncc(C(=O)Nc3cc(C)ccc3C)c2)c1
	< 50	< 50	≥ 50	< 50	< 50	< 50	Cc1ccc(CNC(=O)c2cncc(-c3cccs3)c2)cc1
	< 50	< 50	< 50	< 50	< 50	< 50	COc1ccc(CNC(=O)c2cncc(-c3cc(C)c(O)c(C)c3)c2)cc1
< 50	< 50	< 50	< 50	< 50	< 50	≥ 50	COc1cccc(-c2cncc(C(=O)N[C@@H](C)c3cccc(OC)c3)c2)c1
< 50	< 50	< 50	< 50	< 50	< 50	≥ 50	COc1ccc(CNC(=O)c2cncc(-c3cccc(OC)c3)c2)cc1
< 50	< 50	< 50	< 50	< 50	< 50	≥ 50	COc1cccc(-c2cncc(C(=O)NCc3ccc(C)cc3)c2)c1
< 50	< 50	≥ 50	< 50	< 50	≥ 50	< 50	COc1cc(-c2cncc(C(=O)Nc3ccc(F)cc3C)c2)ccc1O
< 50	< 50	< 50	< 50	< 50	< 50	≥ 50	COc1cc(CNC(=O)c2cncc(-c3cccc(OC)c3)c2)cc(OC)c1
< 50	< 50	< 50	< 50	≥ 50	< 50	< 50	O=C(NCc1ccco1)c1cncc(-c2ccc(O)cc2)c1
< 50	< 50	< 50	< 50	< 50	< 50	≥ 50	COc1cccc(-c2cncc(C(=O)NCc3ccco3)c2)c1
< 50	< 50	< 50	< 50	≥ 50	< 50	< 50	Cc1cc(-c2cncc(C(=O)NCc3ccncc3)c2)cc(C)c1O
< 50	< 50	< 50	< 50	< 50	< 50	≥ 50	Cc1cc(-c2cncc(C(=O)NCc3ccco3)c2)cc(C)c1O
≥ 50	≥ 50	< 50	< 50	≥ 50	< 50	< 50	COc1ccc(NC(=O)c2cncc(-c3cccnc3)c2)c(OC)c1
